# Experiments:
# tps1Δ cells = experiment: Growth rescue of tps1Δ strain on glucose (growth curves, 2% galactose medium); format: cell-based, S. cerevisiae; details: 100 μM compound, 2.5 mM glucose
# Protocol: Growth curves were made by measuring OD595 in a 96-well plate using the Multiskan™ FC Microplate Photometer (Thermo Fisher Scientific). Typically, for tps1Δ rescue experiments (FIG. 2b-e; FIG. 4a), cells were (pre)grown in Complete Synthetic medium containing 2% galactose.
# Compounds were always added 10 min prior to glucose addition to ensure maximal interaction between the cells and compounds. Cells originating from the preculture were harvested, washed in medium without sugar, after which they were resuspended to an OD of 0.1 in 200 μL of the appropriate medium. At least three technical replicates were included per condition. OD595 was measured at 30° C. every 30 min with a 10-min shaking interval.
# [1] = tested on: A549 lung adenocarcinoma cells; experiment: A549 cell proliferation / growth inhibition; format: cell-based, human; details: for Selected from primary screen for growth inhibition of A549 cells at 50 μM: 50 μM compound, 1 mM glucose; for Selected for having an IC50 ratio (10 mM glucose: 1 mM glucose) of A549 growth higher than WBC-A: IC50 on 10 mM vs 1 mM glucose, compared with WBC-A
# Protocol: The analog library (n=203) was screened for inhibition of growth of A549 cells on RPMI medium supplemented with 1 mM glucose. DMSO (green bar) and WBC-A (orange bar) served as negative and positive control, respectively. In addition, the reference glucose transport inhibitors STF-31, Fasentin, BAY-876, WZB-117 and Cytochalasin B were included and indicated in red. Compounds were added at 50 μM concentration. Number of cells was determined by counting nuclei stained by Hoechst after three days of growth.
# For both adherent A549 and MCF10Δ H-RAS^V12 cell lines, growth curves were established using the IncuCyte® ZOOM technology. By collecting phase contrast images, the IncuCyte® software provides a calculated confluency percentage from which growth curves can be deducted.
# Cells were seeded at a density of 1000-1500 cells/well in a Nunc-Edge™ 96-well plate (Thermo Fisher Scientific) and growth was typically measured over 3 to 5 days. For the measurement of apoptosis induction using the MCF10Δ H-RAS^V12 cell line, the IncuCyte® Caspase-3/7 green dye was added to the medium in the recommended concentration at the beginning of the growth curve experiment. Apoptosis was detected by taking fluorescent images by excitation at 488 nm followed by IncuCyte® software analysis. Cell growth of the KMS-12-PE multiple myeloma cell line, which grows in suspension, was measured by manual cell counting. Cells were initially seeded at a density of 10^4 cells/well and incubated for 4 days after which the cell number was counted. For all cell lines, the same medium used for pregrowth was also used for the growth curve experiment, albeit with different glucose concentrations depending on the experimental design. With compound administration, the final concentration of DMSO never exceeded 0.1%. Typically, at least four technical repeats were included per condition.
SMILES,Rescue of the tps1Δ strain on 2.5 mM glucose at 100 μM (tps1Δ cells),Selected from primary screen for growth inhibition of A549 cells at 50 μM [1],Selected for having an IC50 ratio (10 mM glucose: 1 mM glucose) of A549 growth higher than WBC-A [1]
Cc1nc(SCC(=O)N2CCOCC2)c2c3c(sc2n1)CCC3 [65C],No,No,
CCCc1nnc(Sc2nc(CN3CCOCC3)nc3scc(-c4cccs4)c23)[nH]1 [62C],No,Yes,Lower IC50 ratio
COc1ccccc1-n1ncc2c(C)nnc(SCC(N)=O)c21 [68C],No,No,
Cc1nc(Sc2nnc[nH]2)c2cc(-c3ccccc3)sc2n1 [59A],No,No,
Cc1nc(Sc2nnnn2-c2ccccc2C)c2c(-c3cccs3)csc2n1 [20C],No,Yes,Lower IC50 ratio
CCCc1nnc(Sc2nc(C)nc3scc(-c4cccs4)c23)[nH]1 [50C],Yes,Yes,Lower IC50 ratio
Cc1nc(SCCN2CCOCC2)c2cc(-c3ccccc3)sc2n1 [41C],No,Yes,Lower IC50 ratio
OCCCSc1ncnc2scc(-c3ccc(F)cc3)c12 [53C],No,No,
CCC(c1nnc(Sc2nc(C)nc3scc(-c4cccs4)c23)n1Cc1ccccc1)N(C)C (stereo not shown) [52A],No,Yes,Lower IC50 ratio
CC(=O)Nc1ccc(C(=O)CSc2nc(C)nc3scc(-c4cccs4)c23)cc1 [17B],No,Yes,"Higher IC50 ratio, but false-positive"
Cc1nnc(SCC(=O)NC(C)(C)C)c2c1cnn2-c1ccccc1 [75C],No,No,
Cc1nc(SCC(=O)NC(C)(C)C)c2c(-c3cccs3)csc2n1 [32B],Yes,Yes,Lower IC50 ratio
Cc1nc(SCCN2CCOCC2)c2c(-c3cccs3)csc2n1 [44A],Yes,Yes,Lower IC50 ratio
CCCNC(=O)CN1CCC(Nc2nc(C)nc3scc(-c4cccs4)c23)CC1 [30B],No,No,
COC(=O)CSc1ncnc2scc(-c3ccccc3)c12 [86C],No,No,
Cc1nc(NCC(=O)Nc2ccccc2Br)c2c(-c3cccs3)csc2n1 [15C],No,Yes,Higher IC50 ratio and confirmed
COCCCNC(=O)CSc1nc(C)nc2scc(-c3cccs3)c12 [15B],Yes,No,
Cc1nc(SCC(=O)OC(C)(C)C)c2c3c(sc2n1)CCCC3 [31C],No,No,
Cc1nc2scc(-c3cccs3)c2c(=O)[nH]1 [48C],No,No,
CSc1nnc(Sc2nc(C)nc3scc(-c4cccs4)c23)s1 [29A],No,No,
COc1ccccc1-n1ncc2c(C)nnc(SCC(=O)N3CCOCC3)c21 [77C],No,No,

SMILES,Rescue of the tps1Δ strain on 2.5 mM glucose at 100 μM (tps1Δ cells),Selected from primary screen for growth inhibition of A549 cells at 50 μM [1],Selected for having an IC50 ratio (10 mM glucose: 1 mM glucose) of A549 growth higher than WBC-A [1]
Cc1nc(SCC(=O)Nc2ccc(OC(F)(F)F)cc2)c2c(-c3cccs3)csc2n1 [5C],No,Yes,Lower IC50 ratio
Cc1nc(NCCN2CCOCC2)c2c(-c3ccccc3)csc2n1 [85C],No,Yes,"Higher IC50 ratio, but false-positive"
Cc1nc(SCC(=O)N2CCOCC2)c2c(C)c(C)sc2n1 [47C],No,No,
Cc1nc(SCC(N)=O)c2c(C)c(C)sc2n1 [61C],No,No,
COc1ccc(-c2csc3nc(C)nc(SCCO)c23)cc1OC [18C],No,No,
Cc1nc(SC(C(=O)NC(N)=O)C(C)C)c2c(-c3cccs3)csc2n1 (stereo not shown) [34B],No,No,
Cc1nc(Sc2nnc(-c3cccnc3)n2C)c2c(-c3cccs3)csc2n1 [23A],Yes,Yes,Lower IC50 ratio
CCc1nc(SCC(=O)OC)c2c3c(sc2n1)COC(C)(C)C3 [79C],No,No,
COc1ccc(-c2csc3nc(C)nc(Sc4nnc(-c5ccoc5C)n4C)c23)cc1OC [20A],No,Yes,Lower IC50 ratio
CCOC(=O)CSc1nc(CN2CCOCC2)nc2scc(-c3cccs3)c12 [35B],No,No,
COC(=O)C(C)Sc1nc(C)nc2scc(-c3cccs3)c12 (stereo not shown) [36B],No,No,
Cc1nc(SCC(=O)NC(=O)NCCC(C)C)c2c(-c3cccs3)csc2n1 [49B],No,Yes,Lower IC50 ratio
Cc1nc(Sc2nc(CSc3ccccc3)nc3sc(C)c(C)c23)n[nH]1 [10A],No,No,
CCn1c(Sc2nc(C)nc3scc(-c4cccs4)c23)nnc1-c1ccco1 [38C],No,No,
Cc1nc(N2CCC3(CC2)OCCO3)c2c(-c3cccs3)csc2n1 [47B],No,Yes,Lower IC50 ratio
Cc1nc(SCCN2CCCS2(=O)=O)c2c(C)c(C)sc2n1 [83C],No,No,
CSc1nc(SCCO)c2c3c(sc2n1)COC(C)(C)C3 [81C],No,Yes,Lower IC50 ratio
OCCSc1ncnc2sc3c(c12)CCCC3 [27C],No,No,
CCc1nc(SCC(=O)OC)c2ccsc2n1 [42C],No,No,Lower IC50 ratio
COC(=O)CSc1nnc(C(C)C)c2cnn(-c3ccc(C)cc3)c12 [76C],No,Yes,Lower IC50 ratio

# From patent US20240252508A1, “Novel glucose uptake inhibitors for use in the treatment of cancer” (NOVELYEAST BV, priority 2021, published 2024)
